From patent US20230212638A1 (priority 2020, published 2023)

Assays:
Assay type in all cases: cell-based
[1] = tested on: NBRC12993 (Staphylococcus epidermidis control strain); test: Drug sensitivity of Staphylococcus epidermidis NBRC12993 by resonance frequency shift on GHz array sensor; details: PIPC 10.0 μg/mL
Description: By using NBRC12993 being a control strain of Staphylococcus epidermidis, the inventors conducted verification experiments of growth and drug sensitivity of Staphylococcus epidermidis by the test method above.
In this experiment, piperacillin (penicillin) being a time-dependent drug was used. That is, this drug exerts an inhibitory action on growth by retaining the effective drug concentration for a certain period of time. A control sample of NBRC12993 was mixed with piperacillin (PIPC) to prepare a sample for drug sensitivity evaluation at a […] concentration of 10.0 μg/mL (PIPC 10.0 μg/mL). Further, in order to verify the frequency shift of a killed bacterium, a sample was prepared by subjecting 200 μL of a control sample to heat treatment at 98° C. for 30 minutes.
The samples thus prepared were introduced into different containers 60, respectively, and the frequency shift was measured for each sample. In this case, capping solvent 300 was not added into each container 60. The temperatures of an incubator and a Peltier element during the measurement were set in a similar manner to Example 1 above. In analysis processing, frequency shifts of all the 1488 elements on array sensor 10 were measured every 10 seconds, the average value of the measured frequency shifts was calculated every 5 minutes, and extracted as the frequency shift at each timing of the measurement. In addition to this, in Example 3, a region where the growth of Staphylococcus epidermidis was observed was designated on the display image, and the average value of the frequency shifts in this growth region was calculated every 5 minutes. […]
Further, FIG. 12(b) is a display image showing a frequency shift of each element by color when a control sample to which PIPC was not added was measured at the time point after the lapse of 240 minutes, and FIG. 12(c) is a display image showing a frequency shift of each element by color when a sample for drug sensitivity evaluation to which PIPC was added (PIPC 10.0 μg/mL) was measured at the time point after the lapse of 240 minutes. […]

[2] = tested on: BCG (Mycobacterium bovis); details: SM sample: 196 μL control sample + 4 μL SM at 25 mg/mL; 20 elements; 12 hours; 37° C.; FIG. 10(b)
[3] = tested on: NBRC3301 (Escherichia coli control strain); test: Drug sensitivity of Escherichia coli NBRC3301 by resonance frequency shift on GHz array sensor
Protocol: By using NBRC3301 as a control strain of Escherichia coli, the inventors conducted verification experiments of growth and drug sensitivity of Escherichia coli by the test method above.
In this experiment, streptomycin (aminoglycoside) being a concentration-dependent drug was used. 196 μL of a control sample of NBRC3301 was mixed with 4 μL of SM at a concentration of 25 mg/mL to prepare a sample for drug sensitivity evaluation at a SM concentration of 500 μg/mL (SM_500 μg/mL). Further, the amount of the SM to be added to the control sample was adjusted to prepare a sample for drug sensitivity evaluation at a SM concentration of 250 μg/mL (SM_250 μg/mL) and a sample for drug sensitivity evaluation at a SM concentration of 125 μg/mL (SM_125 μg/mL). Furthermore, in order to verify the frequency shift of a killed bacterium, a sample was prepared by subjecting 200 μL of a control sample to heat treatment at 98° C. for 30 minutes. […]
The samples thus prepared were introduced into different containers 60, respectively, and the frequency shift was measured for each sample. […] In analysis processing, frequency shifts of all the 1488 elements on array sensor 10 were measured every 10 seconds, the average value of the measured frequency shifts was calculated every 5 minutes, and extracted as the frequency shift at each timing of the measurement. […]

Row | SMILES | increase in the frequency shift with the lapse of time ([1]; 240 minutes, no capping solvent, compared with heat-treated killed bacteria, FIG. 12(a)) | time from start of measurement until which the frequency shift increased, decreasing trend thereafter (time-dependent action) ([1]; FIG. 12(a)) | frequency shift of each element in display image ([1]; after the lapse of 240 minutes, FIG. 12(c)) | growth of BCG reflected on the frequency shift of each element [2] | frequency shift of each element in display image ([3]; SM 500 μg/mL, after the lapse of 60 minutes, FIG. 11(c)) | increase in the frequency shift with the lapse of time, compared with control sample ([3]; SM 500, 250 and 125 μg/mL, average of all 1488 elements, 60 minutes, no capping solvent, suppression greater at higher concentration, FIG. 11(a))
1 | CCN1CCN(C(=O)N[C@@H](C(=O)N[C@@H]2C(=O)N3[C@@H]2SC(C)(C)[C@@H]3C(=O)O)c2ccccc2)C(=O)C1=O [PIPC, piperacillin] | the increase in the frequency shift was suppressed more than that in the case where heat treatment was performed | around 120 minutes | the frequency shifts of all the elements were uniformly suppressed low |  |  | 
2 | [H]/N=C(/N)N[C@H]1[C@H](O)[C@@H](O)[C@H](O[C@@H]2O[C@@H](C)[C@](O)(C=O)[C@H]2O[C@@H]2O[C@@H](CO)[C@H](O)[C@@H](O)[C@@H]2NC)[C@@H](N/C(N)=N\[H])[C@@H]1O [SM, streptomycin] |  |  |  | growth of BCG was suppressed | the frequency shifts of all the elements were uniformly suppressed low | the increase in the frequency shift was suppressed
